Measured values as given in PMC8044163, “Vitamin D and lumisterol derivatives can act on liver X receptors (LXRs)” (Scientific Reports, 2021).

System: murine dermal fibroblasts
Assay: RNA-Seq of newborn murine dermal fibroblasts
Format: cell-based, mouse
Settings: 10^−7 M, 24 h
Description: All animal studies followed guidelines outlined by the NIH Guide for the Care and Use of Laboratory Animals and protocols were approved by the Institutional Animal Care and Use Committee at the NIEHS or the UAB. […] Skin samples from newborn C57BL/6 mice were collected at the NIEHS. Dermal fibroblasts were isolated from the skin of newborn mice, 1–2 day old. Briefly, we followed the protocols described previously. The skin was washed in PBS, cut into smaller pieces and incubated in 2.4 U/ml of dispase II (Roche) overnight at 4 °C. The dermis was separated from the epidermis and incubated in 0.1% collagenase (Roche) at 4 °C overnight. […] Single cell suspension was prepared by pipetting and draining through a cell strainer. After centrifugation, cell pellets were suspended in DMEM medium containing 10% charcoal-stripped fetal bovine serum (cFBS), mouse fibroblasts growth factor (FGF) and 1% antibiotic, and inoculated into tissue culture dishes (Midwest Scientific, TPP). Cells, in early passages, from different mice were pooled together to provide representative samples for experiments. Fibroblasts were cultured in Petri dishes (10 cm in diameter) in DMEM and 10% cFBS and triplicate semi-confluent cultures were treated as described.
Triplicate cultures of murine fibroblasts were used for RNA isolation (RNAeasy Micro kit, Qiagen), the RNA samples were combined for each condition and at least 200 ng of RNA for each sample was used to create libraries for RNA sequencing by BGI Americas Corporation Service (Cambridge, MA)[67]. Quality of RNA and its concentration were determined using Agilent 2100.
The raw sequence FASTQ files were aligned to Gencode’s GRCm38 p4 Release M11 genome using STAR version 2.5.4b (parameters used: –outReadsUnmapped Fastx; –outSAMtype BAM SortedByCoordinate; –outSAMattributes All; –outFilterIntronMotifs RemoveNoncanonicalUnannotated)[69]. The abundance of transcripts was calculated from the alignments using Cufflinks version 2.2.1 (parameters used: –G; –L; –library-type fr-firststrand). Samples were merged using default parameters with Cuffmerge[70],[71]. The differential expression was calculated using Cuffdiff’s default parameters. The raw data have been deposited at the NCBI GEO (GSE145818).

SMILES: C=C1CCC(O)CC1=CC=C1CCCC2(C)C1CCC2C(C)(O)CC(O)CC(C)C (centres unmarked) [20,23(OH)2D3]
- Adh7 expression level: 1.158
- Adh7 log2(fold_change) vs control: 2.167
- Aqp11 expression level: 0.9828
- Aqp11 log2(fold_change) vs control: 2.131
- Arid3b expression level: 0.2183
- Arid3b log2(fold_change) vs control: -3.968
- Bicd1 expression level: 0.8132
- Bicd1 log2(fold_change) vs control: -1.4
- Btc expression level: 0.8829
- Btc log2(fold_change) vs control: 1.8593
- Car9 expression level: 2.126
- Car9 log2(fold_change) vs control: -2.151
- Cbs expression level: 0.2841
- Cbs log2(fold_change) vs control: -2.782
- Ccl4 expression level: 0.1702
- Ccl4 log2(fold_change) vs control: -2.322
- Cd68 expression level: 3.478
- Cd68 log2(fold_change) vs control: 1.602
- Cd200 expression level: 0.493
- Cd200 log2(fold_change) vs control: -1.526
- Cherp expression level: 31.4407
- Cherp log2(fold_change) vs control: -2.561
- Clec2g expression level: 0
- Clec2g log2(fold_change) vs control: -inf
- Cnnm4 expression level: 3.148
- Cnnm4 log2(fold_change) vs control: -4.001
- Cox15 expression level: 16.947
- Cox15 log2(fold_change) vs control: 1.531
- Cpa2 expression level: 0.3137
- Cpa2 log2(fold_change) vs control: -2.329
- Ctrl expression level: 0.115
- Ctrl log2(fold_change) vs control: -3.153
- Dcun1d1 expression level: 4.486
- Dcun1d1 log2(fold_change) vs control: -1.564
- Defb42 expression level: 0.09112
- Defb42 log2(fold_change) vs control: -3.331
- Dtx1 expression level: 0.6816
- Dtx1 log2(fold_change) vs control: -1.292
- Ehf expression level: 0.1594
- Ehf log2(fold_change) vs control: -2.391
- Ercc2 expression level: 13.0262
- Ercc2 log2(fold_change) vs control: -3.709
- Erh expression level: 2.145
- Erh log2(fold_change) vs control: -1.557
- Fmnl1 expression level: 0.08875
- Fmnl1 log2(fold_change) vs control: -3.4
- Gys2 expression level: 0
- Gys2 log2(fold_change) vs control: -inf
- Hist1h2ab expression level: 1.7305
- Hist1h2ab log2(fold_change) vs control: 2.585
- Hist1h2bg expression level: 0.5684
- Hist1h2bg log2(fold_change) vs control: -2
- Hist1h2bh expression level: 0
- Hist1h2bh log2(fold_change) vs control: -inf
- Hist1h4c expression level: 0
- Hist1h4c log2(fold_change) vs control: -inf
- Isl1 expression level: 0.3239
- Isl1 log2(fold_change) vs control: -1.316
- Krt19 expression level: 10.8799
- Krt19 log2(fold_change) vs control: 1.0982
- Larp1b expression level: 3.399
- Larp1b log2(fold_change) vs control: -2.948
- Lhx6 expression level: 2.278
- Lhx6 log2(fold_change) vs control: -2.362
- Lsm5 expression level: 1.07
- Lsm5 log2(fold_change) vs control: -1.322
- M1ap expression level: 1.3491
- M1ap log2(fold_change) vs control: 1.119
- Med9os expression level: 0.7965
- Med9os log2(fold_change) vs control: -1.386
- Nckipsd expression level: 11.1997
- Nckipsd log2(fold_change) vs control: 1.42
- Nr3c2 expression level: 0.3025
- Nr3c2 log2(fold_change) vs control: -1.869
- Nr6a1 expression level: 0.323
- Nr6a1 log2(fold_change) vs control: -2.52
- Ntrk3 expression level: 0.007819
- Ntrk3 log2(fold_change) vs control: -7.899
- Parvg expression level: 0.4359
- Parvg log2(fold_change) vs control: -1.7705
- Pde4dip expression level: 25.3974
- Pde4dip log2(fold_change) vs control: -7.279
- Psd4 expression level: 0.1525
- Psd4 log2(fold_change) vs control: -3.368
- Ptpa expression level: 177.146
- Ptpa log2(fold_change) vs control: 1.413
- Ptpn6 expression level: 0.3394
- Ptpn6 log2(fold_change) vs control: -5.148
- Rnu3a expression level: 0
- Rnu3a log2(fold_change) vs control: -inf
- Rpph1 expression level: 0.6606
- Rpph1 log2(fold_change) vs control: -1
- Rsad1 expression level: 1.045
- Rsad1 log2(fold_change) vs control: -1.592
- Saa1 expression level: 0
- Saa1 log2(fold_change) vs control: -inf
- Samd12 expression level: 1.71
- Samd12 log2(fold_change) vs control: -1.081
- Scn8a expression level: 0.1177
- Scn8a log2(fold_change) vs control: -2.776
- Sgca expression level: 0.3824
- Sgca log2(fold_change) vs control: -1.697
- Slc15a4 expression level: 15.7859
- Slc15a4 log2(fold_change) vs control: -1.861
- Slc16a5 expression level: 0.2329
- Slc16a5 log2(fold_change) vs control: -1.992
- Snhg9 expression level: 7.505
- Snhg9 log2(fold_change) vs control: -1.322
- St7 expression level: 25.5959
- St7 log2(fold_change) vs control: -1.436
- Stmn1 expression level: 6.591
- Stmn1 log2(fold_change) vs control: 2.0805
- Susd1 expression level: 1.936
- Susd1 log2(fold_change) vs control: 1.474
- Syt8 expression level: 0.7109
- Syt8 log2(fold_change) vs control: -2.1726
- Syt12 expression level: 0.9907
- Syt12 log2(fold_change) vs control: -2.055
- Tldc2 expression level: 0.1921
- Tldc2 log2(fold_change) vs control: -2.216
- Tnnc2 expression level: 0.313
- Tnnc2 log2(fold_change) vs control: -1.361
- Unc5c expression level: 0.1434
- Unc5c log2(fold_change) vs control: -2.931
- Wdr17 expression level: 1.106
- Wdr17 log2(fold_change) vs control: -1.028
- Zbtb18 expression level: 4.966
- Zbtb18 log2(fold_change) vs control: -3.168
- Zfp618 expression level: 1.583
- Zfp618 log2(fold_change) vs control: -1.597
- number of genes downregulated, FC ≥ 2: 540
- number of genes upregulated, FC ≥ 2: 437
- number of genes solely downregulated (FC ≥ 2): 116 (11%)
- number of genes solely upregulated (FC ≥ 2): 193 (12.8%)
